Patent US20050208139A1 (Ascend Therapeutics, Inc., priority 2004, published 2005)

Tests used:
[1] = Isomerization of 4-hydroxy tamoxifen in hydroalcoholic solutions at 25°, 30° and 40° C., Z/E isomers by HPLC (Example 1); type: physicochemical
Protocol: Hydroalcoholic solutions containing 4-hydroxy tamoxifen were prepared, based on the following gel formula: […]
In the hydroalcoholic solutions, phosphate buffer was substituted for Klucel. The composition of the buffer was as follows:
At each of the stated concentrations, separate solutions containing Z-4-hydroxy tamoxifen or a mixture of Z- and E-4-hydroxy tamoxifen were prepared.
Each solution was subdivided into three parts in 30 ml brown glass bottles, then placed in ovens regulated at 25°, 30°, and 40° C.
The relative amounts of Z- and E-4-hydroxy tamoxifen isomers were determined at the initiation of the study and at 2-week, 1-month, 2-month, 3-month, 4-month and 5-month time points.
Operating parameters for the HPLC were as follows:
The order of elution was as follows: • 4-OHT E: retention time about 13.3 min • 4-OHT Z: retention time about 15.0 min.
Percentages of each isomer were calculated using the following formulas: [formula] [formula] D. Data fitting:
The reversible isomerization reaction and the equilibrium reaches are lied by the following relationship: [formula] where • A0=initial concentration of the reagent • Aeq=concentration of the same reagent at equilibrium • A=the concentration of A at time t • kf=forward rate constant • kr=reverse rate constant • t=time measured in months
A plot of log [formula] as a function of time gives a straight line fit with a slope of [formula] and a y-intercept of 0. E. Results

[2] = test system: human breast tumors grown subcutaneously in mice; settings: transdermally delivered; cited from earlier work
[3] = cited from earlier work
[4] = Effects of isopropyl myristate, nature of the alcohol and alcohol/phosphate buffer ratio on isomerization (Example 2); type: physicochemical
Text: The initial E/Z ratio was 63%/37%. • Reference solution: Gel formulation without the gelling agent KLUCEL • Solution II: Reference solution without Isopropyl myristate and containing ethanol • Solution III: Solution II with the ethanol replaced by Isopropyl alcohol • Solution IV: Solution II with the ethanol/buffer ratio of 50/50 instead of 66.5/33.5

[5] = Effects of pH on isomerization at 40° C. (Example 5); type: physicochemical
[6] = test system: normal and cancerous breast cells; settings: in vitro; cited from earlier work
[7] = Initial E/Z 37/63, Buffer pH 2.2, Final pH 4, Day
[8] = Initial E/Z 37/63, Buffer pH 2.2, Final pH 4, Day 8
[9] = Initial E/Z 37/63, Buffer pH 2.2, Final pH 4, Mo. 1
[10] = Initial E/Z 37/63, Buffer pH 2.2, Final pH 4, Mo. 2
[11] = Initial E/Z 37/63, Buffer pH 2.2, Final pH 4, Mo. 3
[12] = Initial E/Z 37/63, Buffer pH 4, Final pH 6, Day
[13] = Initial E/Z 37/63, Buffer pH 4, Final pH 6, Day 8
[14] = Initial E/Z 37/63, Buffer pH 4, Final pH 6, Mo. 1
[15] = Initial E/Z 37/63, Buffer pH 4, Final pH 6, Mo. 2
[16] = Initial E/Z 37/63, Buffer pH 4, Final pH 6, Mo. 3
[17] = Initial E/Z 37/63, Buffer pH 4, Final pH 6, Time 0
[18] = Initial E/Z 37/63, Buffer pH 6, Final pH 7, Day
[19] = Initial E/Z 37/63, Buffer pH 6, Final pH 7, Day 8
[20] = Initial E/Z 37/63, Buffer pH 6, Final pH 7, Mo. 1
[21] = Initial E/Z 37/63, Buffer pH 6, Final pH 7, Mo. 2
[22] = Initial E/Z 37/63, Buffer pH 6, Final pH 7, Mo. 3
[23] = Initial E/Z 37/63, Buffer pH 6, Final pH 7, Time 0
[24] = Initial E/Z 37/63, Buffer pH 8, Final pH 9, Day
[25] = Initial E/Z 37/63, Buffer pH 8, Final pH 9, Day 8
[26] = Initial E/Z 37/63, Buffer pH 8, Final pH 9, Mo. 1
[27] = Initial E/Z 37/63, Buffer pH 8, Final pH 9, Mo. 2
[28] = Initial E/Z 37/63, Buffer pH 8, Final pH 9, Mo. 3
[29] = Initial E/Z 37/63, Buffer pH 8, Final pH 9, Time 0
[30] = Initial E/Z 37/63, Buffer pH 10, Final pH 12, Day
[31] = Initial E/Z 37/63, Buffer pH 10, Final pH 12, Day 8
[32] = Initial E/Z 37/63, Buffer pH 10, Final pH 12, Mo. 1
[33] = Initial E/Z 37/63, Buffer pH 10, Final pH 12, Mo. 2
[34] = Initial E/Z 37/63, Buffer pH 10, Final pH 12, Mo. 3
[35] = Initial E/Z 37/63, Buffer pH 10, Final pH 12, Time 0
[36] = Initial E/Z 100/0, Buffer pH 2.2, Final pH 4, Day
[37] = Initial E/Z 100/0, Buffer pH 2.2, Final pH 4, Day 8
[38] = Initial E/Z 100/0, Buffer pH 2.2, Final pH 4, Mo. 1
[39] = Initial E/Z 100/0, Buffer pH 2.2, Final pH 4, Mo. 2
[40] = Initial E/Z 100/0, Buffer pH 2.2, Final pH 4, Mo. 3
[41] = Initial E/Z 100/0, Buffer pH 4, Final pH 6, Day
[42] = Initial E/Z 100/0, Buffer pH 4, Final pH 6, Day 8
[43] = Initial E/Z 100/0, Buffer pH 4, Final pH 6, Mo. 1
[44] = Initial E/Z 100/0, Buffer pH 4, Final pH 6, Mo. 2
[45] = Initial E/Z 100/0, Buffer pH 4, Final pH 6, Mo. 3
[46] = Initial E/Z 100/0, Buffer pH 4, Final pH 6, Time 0
[47] = Initial E/Z 100/0, Buffer pH 6, Final pH 7, Day
[48] = Initial E/Z 100/0, Buffer pH 6, Final pH 7, Day 8
[49] = Initial E/Z 100/0, Buffer pH 6, Final pH 7, Mo. 1
[50] = Initial E/Z 100/0, Buffer pH 6, Final pH 7, Mo. 2
[51] = Initial E/Z 100/0, Buffer pH 6, Final pH 7, Mo. 3
[52] = Initial E/Z 100/0, Buffer pH 6, Final pH 7, Time 0
[53] = Initial E/Z 100/0, Buffer pH 8, Final pH 9, Day
[54] = Initial E/Z 100/0, Buffer pH 8, Final pH 9, Day 8
[55] = Initial E/Z 100/0, Buffer pH 8, Final pH 9, Mo. 1
[56] = Initial E/Z 100/0, Buffer pH 8, Final pH 9, Mo. 2
[57] = Initial E/Z 100/0, Buffer pH 8, Final pH 9, Mo. 3
[58] = Initial E/Z 100/0, Buffer pH 8, Final pH 9, Time 0
[59] = Initial E/Z 100/0, Buffer pH 10, Final pH 12, Day
[60] = Initial E/Z 100/0, Buffer pH 10, Final pH 12, Day 8
[61] = Initial E/Z 100/0, Buffer pH 10, Final pH 12, Mo. 1
[62] = Initial E/Z 100/0, Buffer pH 10, Final pH 12, Mo. 2
[63] = Initial E/Z 100/0, Buffer pH 10, Final pH 12, Mo. 3
[64] = Initial E/Z 100/0, Buffer pH 10, Final pH 12, Time 0

CCC(=C(c1ccc(O)cc1)c1ccc(OCCN(C)C)cc1)c1ccccc1 [4-hydroxy tamoxifen, 1-[4-(2-N-dimethylaminoethoxy)phenyl]-1-(4-hydroxyphenyl)-2-phenylbut-1-ene]
magnitude of the rate constants for the reversible isomerism as nominal concentration varied from 0.02% to 0.10% [1]: increased linearly | anti-tumor effect [2]: exhibits an anti-tumor effect | extent of isomerization ([3]; Katzenellenbogen et al., isomers initially 99% pure, after 2 days in tissue culture medium at 37° C.): 20% | time within which spontaneous isomerization of Z- into E-4-hydroxy tamoxifen occurred ([3]; Malet et al.): 24-48 h | effect of replacing ethanol by isopropyl alcohol and eliminating the isopropyl myristate on the reversible kinetics ([4]; 0.06% solutions): no significant effect | effect of increasing the aqueous vehicle (buffer) concentration from 33.5% to 50% on the rate constant ([4]; 25° C. and 30° C.): greatly increases the rate constant | effect of increasing the aqueous vehicle (buffer) concentration from 33.5% to 50% on the rate constant ([4]; 40° C.): less pronounced | dependence of the isomerization rate on the dielectric constant of the solvent medium ([4]; water concentration in the medium increases): increased as the dielectric constant of the solvent medium is increased | effect of pH on the equilibration process [5]: Low and high pH speed the equilibration process | % E [5, 7]: 48.5% | % Z [5, 7]: 51.5% | % E [5, 8]: 52.5% | % Z [5, 8]: 47.5% | % E [5, 9]: 48.2% | % Z [5, 9]: 51.8% | % E [5, 10]: 48.0% | % Z [5, 10]: 52.0% | % E [5, 11]: 48.0% | % Z [5, 11]: 52.0% | % Z ([5]; Initial E/Z 37/63, Buffer pH 2.2, Final pH 4, Time 0): 37.1% | % E [5, 12]: 51.0% | % Z [5, 12]: 49.0% | % E [5, 13]: 56.8% | % Z [5, 13]: 43.2% | % E [5, 14]: 49.4% | % Z [5, 14]: 50.6% | % E [5, 15]: 49.0% | % Z [5, 15]: 51.0% | % E [5, 16]: 48.5% | % Z [5, 16]: 51.5% | % E [5, 17]: 62.9% | % Z [5, 17]: 37.1% | % E [5, 18]: 58.0% | % Z [5, 18]: 42.0% | % E [5, 19]: 61.1% | % Z [5, 19]: 38.9% | % E [5, 20]: 55.8% | % Z [5, 20]: 44.2% | % E [5, 21]: 52.0% | % Z [5, 21]: 48.0% | % E [5, 22]: 50.4% | % Z [5, 22]: 49.6% | % E [5, 23]: 62.5% | % Z [5, 23]: 37.5% | % E [5, 24]: 56.9% | % Z [5, 24]: 43.1% | % E [5, 25]: 60.6% | % Z [5, 25]: 39.4% | % E [5, 26]: 54.2% | % Z [5, 26]: 45.8% | % E [5, 27]: 50.8% | % Z [5, 27]: 49.2% | % E [5, 28]: 49.9% | % Z [5, 28]: 50.1% | % E [5, 29]: 62.7% | % Z [5, 29]: 37.3% | % E [5, 30]: 49.0% | % Z [5, 30]: 51.0% | % E [5, 31]: 48.5% | % Z [5, 31]: 51.5% | % E [5, 32]: 49.0% | % Z [5, 32]: 51.0% | % E [5, 33]: 48.8% | % Z [5, 33]: 51.2% | % E [5, 34]: 49.0% | % Z [5, 34]: 51.0% | % E [5, 35]: 63.4% | % Z [5, 35]: 36.6% | % E [5, 36]: 45.9% | % Z [5, 36]: 54.1% | % E [5, 37]: 29.0% | % Z [5, 37]: 71.0% | % E [5, 38]: 47.4% | % Z [5, 38]: 52.6% | % E [5, 39]: 48.0% | % Z [5, 39]: 52.0% | % E [5, 40]: 47.7% | % Z [5, 40]: 52.3% | % Z ([5]; Initial E/Z 100/0, Buffer pH 2.2, Final pH 4, Time 0): 100.0% | % E [5, 41]: 34.3% | % Z [5, 41]: 65.7% | % E [5, 42]: 12.5% | % Z [5, 42]: 87.5% | % E [5, 43]: 43.2% | % Z [5, 43]: 56.8% | % E [5, 44]: 48.1% | % Z [5, 44]: 51.9% | % E [5, 45]: 48.5% | % Z [5, 45]: 51.5% | % E [5, 46]: 0.0% | % Z [5, 46]: 100.0% | % E [5, 47]: 9.6% | % Z [5, 47]: 90.4% | % E [5, 48]: 2.9% | % Z [5, 48]: 97.1% | % E [5, 49]: 16.6% | % Z [5, 49]: 83.4% | % E [5, 50]: 31.3% | % Z [5, 50]: 68.6% | % E [5, 51]: 40.8% | % Z [5, 51]: 59.2% | % E [5, 52]: 0.0% | % Z [5, 52]: 100.0% | % E [5, 53]: 11.6% | % Z [5, 53]: 88.4% | % E [5, 54]: 3.4% | % Z [5, 54]: 96.6% | % E [5, 55]: 20.6% | % Z [5, 55]: 79.4% | % E [5, 56]: 36.4% | % Z [5, 56]: 63.6% | % E [5, 57]: 44.1% | % Z [5, 57]: 55.9% | % E [5, 58]: 0.0% | % Z [5, 58]: 100.0% | % E [5, 59]: 48.8% | % Z [5, 59]: 51.2% | % E [5, 60]: 48.3% | % Z [5, 60]: 51.7% | % E [5, 61]: 48.8% | % Z [5, 61]: 51.2% | % E [5, 62]: 48.8% | % Z [5, 62]: 51.2% | % E [5, 63]: 48.9% | % Z [5, 63]: 51.1% | % E [5, 64]: 0.0% | % Z [5, 64]: 100.0% | % E ([5]; Initial E/Z ratios of 37/63, Buffer pH 2.2, Final pH 4, Time 0): 62.9% | % E ([5]; Initial E/Z ratios of 100/0, Buffer pH 2.2, Final pH 4, Time 0): 0.0% | growth of both normal and cancerous breast cells [6]: inhibits the growth
